# From paper PMC5673977, “Transport Deficiency Is the Molecular Basis of Candida albicans Resistance to Antifungal Oligopeptides” (Frontiers in Microbiology, 2017)
# How the values were obtained:
# Type in all cases: cell-based, Candida albicans
# C. albicans opt2Δ opt3Δ = experiment: Initial peptide uptake rate; settings: 50 mM potassium phosphate buffer (pH 5.0 or 6.5) + 1% glucose, 30°C, 100 μM peptide, TNBS A420, slope 0- to 10-min
# Protocol: (§1) Yeast cells grown exponentially in the YNB-SG medium were harvested by centrifugation (3000 ×g, 5 min), washed with 50 mM potassium phosphate buffer (pH 5.0 or 6.5), and suspended in the same buffer containing 1% glucose, to a final cell density corresponding to A660 ≅ 1.0. The cell suspension was incubated at 30°C. After 10 min, an oligopeptide solution was added, to give a final concentration of 100 μM. At that moment and at 5 min intervals thereafter, 2 mL samples of the cell suspension were withdrawn, immediately filtered through the Whatman GF/A filters and the filtrates were used to determine the residual peptide concentration. Then, the 1 mL portions of the filtrates were taken and combined with 1.25 mL aliquots of a solution containing 4% Na2B4O7 × 10 H2O and 0.8 mg mL^-1 of 2,4,6-trinitrobenzenesulfonate. The reaction was carried out at 37°C for 30 min. The A420 values were measured and the peptide concentration was read from the appropriate standard curve. Data were plotted as nanomoles of an oligopeptide, taken up by 1 mg (dry weight) of cells versus time. The initial uptake velocities were determined from the slopes of the linear part of the curves, in the 0- to 10-min region.
# C. albicans opt5Δ = experiment: Initial peptide uptake rate; settings: 50 mM potassium phosphate buffer (pH 5.0 or 6.5) + 1% glucose, 30°C, 100 μM peptide, TNBS A420, slope 0- to 10-min
# Protocol: as §1
# C. albicans SC5314 = experiment: Initial peptide uptake rate; settings: SC 5314; cells grown in YNB-SG; 50 mM potassium phosphate buffer (pH 5.0 or 6.5) + 1% glucose, 30°C, 100 μM peptide, residual peptide by TNBS A420, slope 0- to 10-min
# Protocol: as §1
# C. albicans opt1Δ = experiment: Initial peptide uptake rate; settings: 50 mM potassium phosphate buffer (pH 5.0 or 6.5) + 1% glucose, 30°C, 100 μM peptide, TNBS A420, slope 0- to 10-min
# Protocol: as §1
# [1] = system: C. albicans opt1–opt5Δ ptr2Δ ptr22Δ; experiment: Initial peptide uptake rate; settings: 50 mM potassium phosphate buffer (pH 5.0 or 6.5) + 1% glucose, 30°C, 100 μM peptide, TNBS A420, slope 0- to 10-min
# Protocol: as §1
# C. albicans opt1–opt5Δ = experiment: Initial peptide uptake rate; settings: 50 mM potassium phosphate buffer (pH 5.0 or 6.5) + 1% glucose, 30°C, 100 μM peptide, TNBS A420, slope 0- to 10-min
# Protocol: as §1
# C. albicans opt4Δ = experiment: Initial peptide uptake rate; settings: 50 mM potassium phosphate buffer (pH 5.0 or 6.5) + 1% glucose, 30°C, 100 μM peptide, TNBS A420, slope 0- to 10-min
# Protocol: as §1
# C. albicans ptr2Δ ptr22Δ = experiment: Initial peptide uptake rate; settings: 50 mM potassium phosphate buffer (pH 5.0 or 6.5) + 1% glucose, 30°C, 100 μM peptide, TNBS A420, slope 0- to 10-min
# Protocol: as §1
# [2] = system: C. albicans isolates NF1-3 and LNF1-3; experiment: Initial peptide uptake rate by isolates resistant to F2/F3; settings: all six isolates NF1-3, LNF1-3; Figure 4
# Protocol: as §1
# It is therefore clear that the diminished sensitivity of all six isolates to F2 and F3 was due to the reduced uptake, most likely by permease(s) of the PTR system.
Substance,Uptake rate ± SD (C. albicans opt2Δ opt3Δ),Uptake rate ± SD (C. albicans opt5Δ),Uptake rate ± SD (C. albicans SC5314),Uptake rate ± SD (C. albicans opt1Δ),Uptake rate ± SD [1],Uptake rate ± SD (C. albicans opt1–opt5Δ),Uptake rate ± SD (C. albicans opt4Δ),Uptake rate ± SD (C. albicans ptr2Δ ptr22Δ),Initial uptake rate relative to wild type SC5314 cells [2]
"Ala-Ala [(Ala)2, reference compound]",3.96 ± 0.29 nmol min^-1 (mg dry weight)^-1,5.00 ± 0.38 nmol min^-1 (mg dry weight)^-1,5.12 ± 0.32 nmol min^-1 (mg dry weight)^-1,4.50 ± 0.36 nmol min^-1 (mg dry weight)^-1,<0.1 nmol min^-1 (mg dry weight)^-1,5.88 ± 0.40 nmol min^-1 (mg dry weight)^-1,4.83 ± 0.31 nmol min^-1 (mg dry weight)^-1,<0.1 nmol min^-1 (mg dry weight)^-1,remarkably lower
"Ala-Ala-Ala [(Ala)3, reference compound]",4.16 ± 0.22 nmol min^-1 (mg dry weight)^-1,3.61 ± 0.30 nmol min^-1 (mg dry weight)^-1,5.62 ± 0.33 nmol min^-1 (mg dry weight)^-1,4.89 ± 0.28 nmol min^-1 (mg dry weight)^-1,<0.1 nmol min^-1 (mg dry weight)^-1,4.99 ± 0.36 nmol min^-1 (mg dry weight)^-1,3.22 ± 0.27 nmol min^-1 (mg dry weight)^-1,<0.1 nmol min^-1 (mg dry weight)^-1,lower
"Ala-Ala-Ala-Ala [(Ala)4, model alanyl oligopeptide, reference compound]",1.93 ± 0.15 nmol min^-1 (mg dry weight)^-1,1.55 ± 0.11 nmol min^-1 (mg dry weight)^-1,3.75 ± 0.19 nmol min^-1 (mg dry weight)^-1,0.79 ± 0.09 nmol min^-1 (mg dry weight)^-1,<0.1 nmol min^-1 (mg dry weight)^-1,0.12 ± 0.02 nmol min^-1 (mg dry weight)^-1,1.72 ± 0.11 nmol min^-1 (mg dry weight)^-1,2.72 ± 0.16 nmol min^-1 (mg dry weight)^-1,nearly the same or even somewhat higher
